# Test results: US20190269702A1, “COMPOSITIONS AND METHODS FOR TREATING NONINFECTIOUS UVEITIS” (CLEARSIDE BIOMEDICAL, INC., priority 2018, published 2019)
# System: treatment-naïve DME eyes
# Assay type: in vivo, human
# Experimental: A study was conducted to evaluate suprachoroidal CLS-TA in combination with intravitreal aflibercept, compared to aflibercept monotherapy for DME. SCS injections target chorioretinal tissues more directly than intravitreal injections while limiting exposure to the anterior chamber, thereby offering potential safety, efficacy, and durability advantages. The study was a Phase 2, multicenter, randomized, double-masked, controlled, 24-week study in treatment-naïve DME eyes (eligibility: CST >300 μm; 20-70 ETDRS letters) randomized 1:1 to CLS-TA+aflibercept or aflibercept monotherapy. Patients in the combination arm (n=36) received CLS-TA and aflibercept at baseline & week 12 ([…]). Patients in the monotherapy arm (n=35) received aflibercept at baseline, W4, W8 and […]. […] The study is referred to as the TYBEE study in some embodiments herein.
substance,measurement,setting,value
aflibercept,eyes with macular edema resolved (<300 μm),W4,21%
same,mean CST change,W24,−176 μm
same,gain in BCVA letters from baseline,"W24, per protocol arms",+13.5 letters
same,mean PRN aflibercept treatments,at W16 & W20,0.7
same,cataract observed,in vivo,2.9%
same,elevated IOP observed,in vivo,2.9%
same,treatment-related serious AEs,in vivo,No treatment-related serious AEs were observed
same,average number of treatments,through week 24,4.7
